Test results taken from patent US20200392497A1, “METHODS AND COMPOSITIONS FOR DETECTING AND PROMOTING CARDIOLIPIN REMODELING AND CARDIOMYOCYTE MATURATION AND RELATED METHODS OF TREATING MITOCHONDRIAL DYSFUNCTION” (University of Washington, priority 2017, published 2020).

Tested on: HADHA Mut CMs
Experiment: Seahorse MitoStress assay, proton leak in fatty acid challenged HADHA Mut CMs
Format: cell-based, human
Settings: 1 nM, 12D Glc+FA media, vs non-treated Mut CMs
From the text: To better understand the pathological state of HADHA Mut and KO CMs exposed to chronic FAs, their mitochondria were functionally assessed. […] Because exposure to FAs led to a reduction in mitochondrial membrane potential and reduced ATP production, it was postulated that this may be due in part to an increased proton leak.
The Seahorse XF96 extracellular flux analyzer was used to assess mitochondrial function as previously described [Kuppusamy, K. T., et al., Let-7 family of microRNA is required for maturation and adult-like metabolism in stem cell-derived cardiomyocytes. Proc Natl Acad Sci U.S.A., 2015]. The plates were pre-treated with 1:60 diluted Matrigel reduced growth factor (Corning). […] The OCR values were further normalized to the number of cells present in each well, quantified by the Hoechst staining (Hoechst 33342; Sigma-Aldrich) as measured using fluorescence at 355 nm excitation and 460 nm emission. […] ATP production was calculated as the difference between the basal respiration and respiration after oligomycin. Proton leak was calculated as the difference between respiration after oligomycin and after antimycin & rotenone. Cellular capacity to utilize palmitate as an energy source was calculated as the difference between the average OCR after second palmitate addition and the final respiration value before the second addition of palmitate. […]

## elamipretide [SS-31]
  proton leak (OCR after oligomycin minus OCR after antimycin & rotenone): significantly lower
Listed as elamipretide (SS-31)
  proton leak (OCR after oligomycin minus OCR after antimycin & rotenone): rescued the increased proton leak
